Data published in patent US8841413B2, “Antidiabetic compounds” (Cadila Healthcare Limited, priority 2006, dated 2014).
Where two headings read alike, the source gives them in different places.

Legend:
DPP IV = DPP IV (Homo sapiens, UniProt P27487); assay: Stability against DPP IV enzyme; format: in vitro ADME; settings: 2 μM, 37° C.; for half-life: read-out: half-life (t1/2) with DPP-IV enzyme
Protocol: (§1) Reactions were terminated by the addition of TFA/H2O (15 mL, 10% (v/v)). […] The column was equilibrated with TFA/H2O, at a flow rate of 1 mL/min. […] The absorbance was monitored at 206 nm using UV detector and peaks were collected manually prior to ESI-MS analysis.

[1] = Stability in simulated gastric fluid; format: in vitro ADME; settings: 2 μM, 37° C., pH 1.5, pepsin; for half-life: simulated gi fluid, read-out: half-life (t1/2) in simulated gastric fluid
Protocol: as §1

[2] = Stability in simulated intestinal fluid; format: in vitro ADME; settings: 2 μM, 37° C., pH 7.5; for half-life: simulated gi fluid, read-out: half-life (t1/2) in simulated intestinal fluid
Protocol: as §1

Human GLP-1 receptor = target: T1, Human GLP-1 receptor (Homo sapiens, UniProt P43220); format: cell-based
T1 construct: The full-length cDNA was cloned in pcDNA3.1(+); expressed in transfected cells
T1 sequence (P43220 24-463): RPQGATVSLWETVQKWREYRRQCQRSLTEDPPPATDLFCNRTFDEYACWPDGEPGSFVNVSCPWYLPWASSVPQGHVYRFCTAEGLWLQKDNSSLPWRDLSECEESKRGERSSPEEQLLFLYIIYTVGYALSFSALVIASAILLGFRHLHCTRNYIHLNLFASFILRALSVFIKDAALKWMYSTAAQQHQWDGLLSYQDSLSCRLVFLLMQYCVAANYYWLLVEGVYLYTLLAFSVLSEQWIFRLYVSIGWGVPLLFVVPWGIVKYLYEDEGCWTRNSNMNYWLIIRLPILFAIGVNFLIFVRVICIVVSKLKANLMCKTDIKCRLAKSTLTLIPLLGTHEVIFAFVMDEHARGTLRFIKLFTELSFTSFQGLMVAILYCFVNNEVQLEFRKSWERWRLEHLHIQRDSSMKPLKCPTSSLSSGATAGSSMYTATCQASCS
Procedure, shortened: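 Stably transfected CHO cells expressing human GLP-1R, passages 9-25, exposed to compounds for 30 min at 37 °C. Lysed in ice-cold 0.1 N HCl; total cAMP by immunoassay, protein by micro BCA; expressed as percent of water vehicle control, mean±SD.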

[3] = Stability against liver microsomes; format: in vitro ADME, human; settings: 2 μM, 37° C.
Protocol: as §1

[4] = Stability in human plasma; format: in vitro ADME; settings: 2 μM, 37° C.; for half-life: human, plasma, read-out: half-life (t1/2) in human plasma
Protocol: as §1

Chain of DPP IV (P27487 whole entry, species assumed): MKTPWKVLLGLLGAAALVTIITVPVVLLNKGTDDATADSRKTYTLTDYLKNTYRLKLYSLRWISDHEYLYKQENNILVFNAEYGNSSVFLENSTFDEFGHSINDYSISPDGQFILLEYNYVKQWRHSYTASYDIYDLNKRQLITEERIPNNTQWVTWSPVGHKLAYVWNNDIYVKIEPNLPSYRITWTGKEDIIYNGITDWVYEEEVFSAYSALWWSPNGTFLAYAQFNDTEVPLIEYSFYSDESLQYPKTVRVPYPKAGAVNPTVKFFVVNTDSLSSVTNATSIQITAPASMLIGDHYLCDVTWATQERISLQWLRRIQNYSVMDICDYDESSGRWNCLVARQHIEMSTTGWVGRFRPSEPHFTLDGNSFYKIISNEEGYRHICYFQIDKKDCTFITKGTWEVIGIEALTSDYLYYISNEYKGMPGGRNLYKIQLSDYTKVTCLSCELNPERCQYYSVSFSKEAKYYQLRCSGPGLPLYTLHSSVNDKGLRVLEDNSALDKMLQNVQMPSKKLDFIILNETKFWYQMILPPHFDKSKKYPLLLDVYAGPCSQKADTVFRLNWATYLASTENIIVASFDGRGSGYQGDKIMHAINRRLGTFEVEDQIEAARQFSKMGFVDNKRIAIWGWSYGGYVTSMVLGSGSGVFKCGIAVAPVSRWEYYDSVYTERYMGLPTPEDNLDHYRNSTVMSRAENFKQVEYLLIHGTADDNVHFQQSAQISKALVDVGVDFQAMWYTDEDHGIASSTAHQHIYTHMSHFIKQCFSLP

Row | SMILES | % degradation in 24 h when incubated with DPP-IV enzyme (DPP IV) [%] | half-life (DPP IV) [h] | % degradation in 24 h when incubated with simulated gastric fluid [1] [%] | half-life [1] [h] | % degradation in 24 h when incubated with simulated intestinal fluid [2] [%] | half-life [2] [h] | Human GLP-1 R activity (cAMP release), % activity with respect to control (Human GLP-1 receptor; 1 nM test compound) [%] | Human GLP-1 R activity (cAMP release), % activity with respect to control (Human GLP-1 receptor; 10 nM test compound) [%] | Human GLP-1 R activity (cAMP release), % activity with respect to control (Human GLP-1 receptor; 100 nM test compound) [%] | Human GLP-1 R activity (cAMP release), % activity with respect to control (Human GLP-1 receptor; 1 μM test compound) [%] | Human GLP-1 R activity (cAMP release), % activity with respect to control (Human GLP-1 receptor; 10 μM test compound) [%] | half-life (t1/2) with liver microsomes [3] | % degradation in 24 h when incubated with liver microsomes [3] [%] | % degradation in 24 h when incubated with human plasma [4] [%] | half-life [4] [h]
1 | CCc1cc(OC)ccc1-c1ccc(CC(NC(=O)[C@H](CC(=O)O)NC(=O)[C@H](CO)NC(=O)[C@@H](NC(=O)C(C)(Cc2ccccc2F)NC(=O)[C@@H](NC(=O)CNC(=O)[C@H](CCC(N)=O)NC(=O)C(C)(C)NC(=O)[C@@H](N)Cc2c[nH]cn2)[C@@H](C)O)[C@@H](C)O)C(=O)NC(Cc2ccc(-c3ccccc3C)cc2)C(N)=O)cc1 (single isomer, unassigned) [compound 29] | 00 | > 24 | 00 | > 24 | 00 | > 24 | 99 ± 0.12 | 99 ± 0.15 | 99 ± 0.18 | 99 ± 0.03 | 99 ± 0.09 | (5) h | 35 | 00 | > 24
2 | CCc1cc(OC)ccc1-c1ccc(CC(NC(=O)[C@H](CC(=O)O)NC(=O)[C@H](CO)NC(=O)[C@@H](NC(=O)C(C)(Cc2ccccc2F)NC(=O)[C@@H](NC(=O)CNC(=O)[C@H](CCC(N)=O)NC(=O)C(C)(C)NC(=O)[C@@H](N)Cc2c[nH]cn2)[C@@H](C)O)[C@@H](C)O)C(=O)NC(Cc2ccc(-c3ccccc3C)nc2)C(N)=O)cc1 (single isomer, unassigned) [compound 30] | 00 | > 24 | 00 | > 24 | 00 | > 24 | 93 ± 0.11 | 99 ± 0.09 | 99 ± 0.06 | 99 ± 0.14 | 99 ± 0.19 | (5) h | 33 | 00 | > 24
3 | CCc1cc(OC)ccc1-c1ccc(CC(NC(=O)[C@H](CC(=O)O)NC(=O)[C@H](CO)NC(=O)[C@@H](NC(=O)C(C)(Cc2ccccc2F)NC(=O)[C@@H](NC(=O)CNC(=O)[C@H](CCC(N)=O)NC(=O)C(C)(C)NC(=O)[C@@H](N)Cc2c[nH]cn2)[C@@H](C)O)[C@@H](C)O)C(=O)NC(Cc2ccc(-c3ccccc3F)cc2)C(N)=O)cc1 (single isomer, unassigned) [compound 31] | 00 | > 24 | 00 | > 24 | 00 | > 24 | 93 ± 0.10 | 99 ± 0.46 | 99 ± 0.41 | 99 ± 0.66 | 99 ± 0.03 | (5) h | 31 | 00 | > 24
4 | CCc1cc(OC)ccc1-c1ccc(CC(NC(=O)[C@H](CC(=O)O)NC(=O)[C@H](CO)NC(=O)[C@@H](NC(=O)C(C)(Cc2ccccc2F)NC(=O)[C@@H](NC(=O)CNC(=O)[C@H](CCC(N)=O)NC(=O)C(C)(C)NC(=O)[C@@H](N)Cc2c[nH]cn2)[C@@H](C)O)[C@@H](C)O)C(=O)NC(Cc2ccc(-c3ccccc3C(F)(F)F)cc2)C(N)=O)cc1 (single isomer, unassigned) [compound 32] | 00 | > 24 | 00 | > 24 | 00 | > 24 | 99 ± 0.06 | 99 ± 0.06 | 99 ± 0.08 | 99 ± 0.10 | 99 ± 0.12 | (5) h | 32 | 00 | > 24
5 | CCc1cc(OC)ccc1-c1ccc(CC(NC(=O)[C@H](CC(=O)O)NC(=O)[C@H](CO)NC(=O)[C@@H](NC(=O)C(C)(Cc2ccccc2F)NC(=O)[C@@H](NC(=O)CNC(=O)[C@H](CCC(N)=O)NC(=O)C2(NC(=O)[C@@H](N)Cc3c[nH]cn3)CC2)[C@@H](C)O)[C@@H](C)O)C(=O)NC(Cc2ccc(-c3ccccc3C)cc2)C(N)=O)cc1 (single isomer, unassigned) [compound 33] | 00 | > 24 | 00 | > 24 | 00 | > 24 | 99 ± 0.11 | 99 ± 0.13 | 99 ± 0.16 | 99 ± 0.06 | 99 ± 0.10 | (5) h | 33 | 00 | > 24
6 | CCc1cc(OC)ccc1-c1ccc(CC(NC(=O)[C@H](CC(=O)O)NC(=O)[C@H](CO)NC(=O)[C@@H](NC(=O)C(C)(Cc2ccccc2F)NC(=O)[C@@H](NC(=O)CNC(=O)[C@H](CCC(N)=O)NC(=O)C2(NC(=O)[C@@H](N)Cc3c[nH]cn3)CC2)[C@@H](C)O)[C@@H](C)O)C(=O)NC(Cc2ccc(-c3ccccc3C)nc2)C(N)=O)cc1 (single isomer, unassigned) [compound 34] | 00 | > 24 | 00 | > 24 | 00 | > 24 | 99 ± 0.12 | 99 ± 0.08 | 99 ± 0.11 | 99 ± 0.12 | 99 ± 0.16 | (5) h | 32 | 00 | > 24
7 | CCc1cc(OC)ccc1-c1ccc(CC(NC(=O)[C@H](CC(=O)O)NC(=O)[C@H](CO)NC(=O)[C@@H](NC(=O)C(C)(Cc2ccccc2F)NC(=O)[C@@H](NC(=O)CNC(=O)[C@H](CCC(N)=O)NC(=O)C2(NC(=O)[C@@H](N)Cc3c[nH]cn3)CC2)[C@@H](C)O)[C@@H](C)O)C(=O)NC(Cc2ccc(-c3ccccc3F)cc2)C(N)=O)cc1 (single isomer, unassigned) [compound 35] | 00 | > 24 | 00 | > 24 | 00 | > 24 | 99 ± 0.02 | 99 ± 0.26 | 99 ± 0.31 | 99 ± 0.60 | 99 ± 0.08 | (5) h | 26 | 00 | > 24
